Measurements from patent US4849425A, “Readily absorbable pharmaceutical composition” (Ishihara Sangyo Kaisha Ltd., priority 1985, dated 1989).

Assays:
[1] = Rectal suppository, plasma concentration in rats (Test Example 6); type: in vivo, Wistar male rat; conditions: rat; for Concentration in the plasma / concentration at 0.5 h / concentration at 1 h / concentration at 2 h / concentration at 4 h: rectal; for Concentration in the plasma: 0; for concentration at 0.5 h / concentration at 1 h / concentration at 2 h / concentration at 4 h: plasma
Experimental: A Witepsol W-35 suppository (weight: about 45 mg) comprising 1.8 mg of Compound No. 3 and 12.5% (weight/volume) of dimethyl β-type cyclodextrin, was administered to the rectum of each Wistar male rat having a body weight of about 90 g (a group of three rats). Then, the blood was periodically sampled from the jugular vein, and the concentration of Compound No. 3 in the plasma was measured. To a control group, a suppository contained no cyclodextrin was administered. It is evident that by the addition of dimethyl β-type cyclodextrin, the absorbability of Compound No. 3 increased.

[2] = Absorbability through the gut, oral, aqueous and non-aqueous dispersing solvents, plasma concentration in rats (Test Example 5); type: in vivo, Wistar male rats; conditions: rat; for absorption: oral; for concentration at 1 h / concentration at 3 h / concentration at 5 h / concentration at 24 h: plasma, po, 20 mg/kg
Experimental: (§1) 20 mg of Compound No. 3 was taken into a mortar, and 5 ml of an aqueous solution containing 1.7% of β-type cyclodextrin or 2% or 40% of dimethyl β-type cyclodextrin was added under stirring to obtain a suspension of Compound No. 3. The suspension was orally administered by an oral sonde to a group of three Wistar male rats (body weight: 200-250g). The dose of Compound No. 3 was 20 mg/kg rat body weight. Further, Compound No. 3 was likewise suspended in an aqueous solution containing 0.5% of sodium salt of carboxymethyl cellulose, and the suspension was used as the control ( in FIG. 3). After the administration, the blood was periodically sampled, and the plasma was separated. After the removal of protein by acetonitrile, Compound No. 3 in the plasma was quantitatively analyzed by a high speed liquid chromatography as shown in Test Example 1.
The changes with time of the concentration of Compound No. 3 in the plasma after the oral administration were studied in the same manner as in Test Example 3 by using an aqueous solution of 10% (weight/volume) hydroxypropyl cellulose (HPC-L, manufactured by Nippon Soda Co., Ltd.), 2.5% (weight/volume) methyl cellulose (Metrose SM 15,manufactured by Shin-Etsu Chemical Co., Ltd.), 10% (weight/volume) hydroxypropylmethyl cellulose (Metrose TC5R, manufactured by Shin-Etsu Chemical Co., Ltd.), 2.5% (weight/volume) sodium salt of carboxymethyl cellulose (manufactured by Wako Junyaku K.K.), 10% (weight/volume) sucrose fatty acid ester (P1570, manufactured by Hishito K.K.) or 10% (weight/volume) pluronic F 68 (manufactured by Asahi Denka Kogyo K.K.), as an aqueous dispersing solvent for Compound No. 3, and medium-chain length fatty acid triglyceride (ODO, manufactured by Nisshin Seiyu K.K.), ODO containing 5% (weight/volume) sucrose fatty acid ester (S-370F, manufactured by Hishito K.K.), or a refined soybean oil (The Green Cross Corporation) or refined sesame oil (Takemoto Yushi K.K.) containing 5% (weight/volume) of S-370F, as a non-aqueous dispersing solvent, and an aqueous solution of 50% (weight/volume) dimethyl β-type cyclodextrin and an aqueous solution of 0.5% (weight/volume) sodium carboxymethyl cellulose, as the control.

[3] = Absorbability through the gut, oral, various dispersing solvents, plasma concentration in rats (Test Example 4); type: in vivo, Wistar male rats; conditions: 20 mg/kg, rat
Experimental: as §1, with “3 was taken into a mortar, and 5 ml of an aqueous solution containing 1.7% of β-type cyclodextrin or 2% or 40% of dimethyl β-type cyclodextrin was added under stirring to obtain a suspension of Compound No.” left out
The changes with time of the concentration of Compound No. 3 in the plasma after the oral administration were studied in the same manner as in Test Example 3 by using an aqueous solution of 10% (weight/volume) Polysolvate 80 (Tween 80, manufactured by Nakayai Kagaku K.K.), 10% (weight/volume) polyoxyethylene hardened caster oil 60 (manufactured by Nikko Chemical K.K.), 100% polyethylene glycol 400 or 50% (weight/volume) dimethyl β-type cyclodextrin, as the dispersing solvent for Compound No. 3, and an aqueous solution of 0.5% (weight/volume) sodium salt of carboxymethyl cellulose, as the control. […]

[4] = 1.8 mg, Witepsol W-35 suppository, 12.5% (w/v) dimethyl β-type cyclodextrin
[5] = 1.8 mg, control suppository without cyclodextrin
[6] = 0.5% (w/v) sodium salt of carboxymethyl cellulose (control), oral 20 mg/kg
[7] = 2.5% (w/v) methyl cellulose, oral 20 mg/kg
[8] = 2.5% (w/v) sodium salt of carboxymethyl cellulose, oral 20 mg/kg
[9] = 5% (w/v) Pluronic F31/ODO, oral 20 mg/kg
[10] = 5% (w/v) sucrose fatty acid ester/ODO, oral 20 mg/kg
[11] = 5% (w/v) sucrose fatty acid ester/refined sesame oil, oral 20 mg/kg
[12] = 5% (w/v) sucrose fatty acid ester/refined soybean oil, oral 20 mg/kg
[13] = 10% (w/v) Pluronic F68, oral 20 mg/kg
[14] = 10% (w/v) hydroxypropyl cellulose, oral 20 mg/kg
[15] = 10% (w/v) hydroxypropylmethyl cellulose, oral 20 mg/kg
[16] = 10% (w/v) sucrose fatty acid ester, oral 20 mg/kg
[17] = 50% (w/v) dimethyl β-type cyclodextrin, oral 20 mg/kg
[18] = medium-chain length fatty acid triglyceride (ODO), oral 20 mg/kg

O=C(NC(=O)c1ccccc1[N+](=O)[O-])Nc1ccc(Oc2ncc(Br)cn2)c(Cl)c1 [Compound No. 3, N-(2-nitrobenzoyl)-N'-[4-(5-bromo-2-pyrimidinyloxy)-3-chlorophenyl]urea]
Concentration in the plasma ([1]; Witepsol W-35 suppository, 1.8 mg, 12.5% (w/v) dimethyl β-type cyclodextrin): 0 ng/mL
absorbability ([1]; addition of dimethyl β-type cyclodextrin, rectal suppository): increased
Concentration in the plasma ([1]; control suppository without cyclodextrin): 0 ng/mL
concentration at 0.5 h [1, 4]: 320 ng/mL
concentration at 1 h [1, 4]: 480 ng/mL
concentration at 2 h [1, 4]: 940 ng/mL
concentration at 4 h [1, 4]: 990 ng/mL
concentration at 0.5 h [1, 5]: 40 ng/mL
concentration at 1 h [1, 5]: 80 ng/mL
concentration at 2 h [1, 5]: 110 ng/mL
concentration at 4 h [1, 5]: 90 ng/mL
absorption ([2]; 50% (w/v) dimethyl β-type cyclodextrin, among the aqueous dispersing solvents): highest absorption
absorption ([2]; ODO containing 5% (w/v) Pluronic F32): high absorption
concentration at 1 h [2, 6]: 30 ng/mL
concentration at 3 h [2, 6]: 100 ng/mL
concentration at 5 h [2, 6]: 150 ng/mL
concentration at 24 h [2, 6]: 10 ng/mL
concentration at 1 h [2, 7]: 60 ng/mL
concentration at 3 h [2, 7]: 110 ng/mL
concentration at 5 h [2, 7]: 110 ng/mL
concentration at 24 h [2, 7]: 30 ng/mL
concentration at 1 h [2, 8]: 40 ng/mL
concentration at 3 h [2, 8]: 110 ng/mL
concentration at 5 h [2, 8]: 90 ng/mL
concentration at 24 h [2, 8]: 90 ng/mL
concentration at 1 h [2, 9]: 100 ng/mL
concentration at 3 h [2, 9]: 200 ng/mL
concentration at 5 h [2, 9]: 220 ng/mL
concentration at 24 h [2, 9]: 470 ng/mL
concentration at 1 h [2, 10]: 60 ng/mL
concentration at 3 h [2, 10]: 180 ng/mL
concentration at 5 h [2, 10]: 200 ng/mL
concentration at 24 h [2, 10]: 220 ng/mL
concentration at 1 h [2, 11]: 140 ng/mL
concentration at 3 h [2, 11]: 490 ng/mL
concentration at 5 h [2, 11]: 570 ng/mL
concentration at 24 h [2, 11]: 370 ng/mL
concentration at 1 h [2, 12]: 120 ng/mL
concentration at 3 h [2, 12]: 500 ng/mL
concentration at 5 h [2, 12]: 550 ng/mL
concentration at 24 h [2, 12]: 390 ng/mL
concentration at 1 h [2, 13]: 110 ng/mL
concentration at 3 h [2, 13]: 190 ng/mL
concentration at 5 h [2, 13]: 230 ng/mL
concentration at 24 h [2, 13]: 120 ng/mL
concentration at 1 h [2, 14]: 50 ng/mL
concentration at 3 h [2, 14]: 120 ng/mL
concentration at 5 h [2, 14]: 110 ng/mL
concentration at 24 h [2, 14]: 40 ng/mL
concentration at 1 h [2, 15]: 140 ng/mL
concentration at 3 h [2, 15]: 310 ng/mL
concentration at 5 h [2, 15]: 280 ng/mL
concentration at 24 h [2, 15]: 100 ng/mL
concentration at 1 h [2, 16]: 40 ng/mL
concentration at 3 h [2, 16]: 180 ng/mL
concentration at 5 h [2, 16]: 180 ng/mL
concentration at 24 h [2, 16]: 240 ng/mL
concentration at 1 h [2, 17]: 280 ng/mL
concentration at 3 h [2, 17]: 580 ng/mL
concentration at 5 h [2, 17]: 490 ng/mL
concentration at 24 h [2, 17]: 360 ng/mL
concentration at 1 h [2, 18]: 120 ng/mL
concentration at 3 h [2, 18]: 170 ng/mL
concentration at 5 h [2, 18]: 210 ng/mL
concentration at 24 h [2, 18]: 240 ng/mL
absorption ([2]; refined soybean oil or refined sesame oil containing 5% (w/v) sucrose fatty acid ester, among the non-aqueous dispersing solvents): high absorption almost equal to dimethyl β-type cyclodextrin
concentration in the plasma as compared with the control ([3]; 50% (w/v) dimethyl β-type cyclodextrin vs 0.5% sodium carboxymethyl cellulose): about 7.5 times
concentration in the plasma as compared with the control ([3]; 100% polyethylene glycol 400 vs 0.5% sodium carboxymethyl cellulose): about 5 times
